For six compounds, T/C results are on record in PubChem BioAssay AID248 (DTP/NCI, 2004).

“And” between values parts separate entries of the source, which are not always exact repeats. Identical values can stand only once. Toxic doses and inconclusive results are not listed.

The test deals with L1210 leukemia ip in BDF1 mice, survival T/C. The test can be described thus: NCI In Vivo Anticancer Drug Screen. Data for tumor model L1210 Leukemia (intraperitoneal) in B6D2F1 (BDF1) mice. The conditions noted are these: higher = longer survival. The method, boiled down:
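Mice bearing the transplanted tumor received compound or vehicle. Survival of the treated group was divided by that of the vehicle-treated control group to give the ratio.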

For the compound `CC(C)[C@]12O[C@H]1[C@@H]1O[C@]13[C@]1(O[C@H]1C[C@H]1C4=C(C(=O)OC4)[C@@H](O)C[C@@]13C)[C@@H]2O`, the T/C is 105 % of control (endpoint: mean survival time, dose: 2.4 micrograms/kg/injection, schedule: Q01DX009 (oral), vehicle: Klucel (hydroxypropylcellulose) (HPC)); 102 % of control (endpoint: mean survival time, dose: 4.8 micrograms/kg/injection, schedule: Q01DX009 (oral), vehicle: Klucel (hydroxypropylcellulose) (HPC)); 101 % of control (endpoint: mean survival time, dose: 9.5 micrograms/kg/injection, schedule: Q01DX009 (oral), vehicle: Klucel (hydroxypropylcellulose) (HPC)); 94 % of control and 111 % of control (endpoint: mean survival time, dose: 13.0 micrograms/kg/injection, schedule: Q01DX009 (ip), vehicle: saline); 116 % of control (endpoint: mean survival time, dose: 19.0 micrograms/kg/injection, schedule: Q01DX009 (oral), vehicle: Klucel (hydroxypropylcellulose) (HPC)); 108 % of control and 110 % of control (endpoint: mean survival time, dose: 25.0 micrograms/kg/injection, schedule: Q01DX009 (ip), vehicle: saline). The T/C runs as follows: (endpoint: mean survival time, dose: 38.0 micrograms/kg/injection, schedule: Q01DX009 (oral), vehicle: Klucel (hydroxypropylcellulose) (HPC)) 107 % of control; (endpoint: mean survival time, dose: 38.0 micrograms/kg/injection, schedule: Q01DX009 (oral), vehicle: saline + alcohol) 103 % of control; (endpoint: mean survival time, dose: 100.0 micrograms/kg/injection, schedule: Q01DX009 (ip), vehicle: saline) 150 % of control and 159 % of control; (endpoint: mean survival time, dose: 200.0 micrograms/kg/injection, schedule: Q01DX009 (ip), vehicle: saline) 198 % of control; (endpoint: median survival time, dose: 0.06 mg/kg/injection, schedule: Q01DX009 (ip), vehicle: saline + alcohol) 113 % of control; (endpoint: median survival time, dose: 0.06 mg/kg/injection, schedule: Q01DX009 (ip), vehicle: saline with Tween-80) 114 % of control and 124 % of control. The T/C (endpoint: median survival time, dose: 0.06 mg/kg/injection, schedule: Q01DX009 (sc), vehicle: saline + alcohol) is 102 % of control; the T/C (endpoint: median survival time, dose: 0.06 mg/kg/injection, schedule: Q04DX003 (ip), vehicle: saline + alcohol) is 98 % of control; the T/C (endpoint: median survival time, dose: 0.12 mg/kg/injection, schedule: Q01DX009 (sc), vehicle: saline + alcohol) was 107 % of control; the T/C (endpoint: median survival time, dose: 0.12 mg/kg/injection, schedule: Q04DX003 (ip), vehicle: saline + alcohol) is 106 % of control; the T/C (endpoint: median survival time, dose: 0.12 mg/kg/injection, schedule: Q08DX002 (ip), vehicle: saline + alcohol) was 102 % of control; the T/C (endpoint: median survival time, dose: 0.13 mg/kg/injection, schedule: Q01DX009 (ip), vehicle: saline + alcohol) is 156 % of control. The T/C is 100 % of control and 120 % of control (endpoint: median survival time, dose: 0.13 mg/kg/injection, schedule: Q01DX009 (oral), vehicle: saline + alcohol); 102 % of control (endpoint: median survival time, dose: 0.25 mg/kg/injection, schedule: Q01DX001 (ip), vehicle: saline + alcohol); 178 % of control and 195 % of control (endpoint: median survival time, dose: 0.25 mg/kg/injection, schedule: Q01DX009 (ip), vehicle: saline + alcohol); 185 % of control and 202 % of control (endpoint: median survival time, dose: 0.25 mg/kg/injection, schedule: Q01DX009 (ip), vehicle: saline with Tween-80); 151 % of control (endpoint: median survival time, dose: 0.25 mg/kg/injection, schedule: Q01DX009 (sc), vehicle: saline + alcohol); 107 % of control (endpoint: median survival time, dose: 0.25 mg/kg/injection, schedule: Q04DX003 (ip), vehicle: saline + alcohol). Also, the T/C (endpoint: median survival time, dose: 0.25 mg/kg/injection, schedule: Q08DX002 (ip), vehicle: saline + alcohol) was 109 % of control; the T/C (endpoint: median survival time, dose: 0.5 mg/kg/injection, schedule: Q01DX001 (ip), vehicle: saline + alcohol) is 113 % of control; the T/C (endpoint: median survival time, dose: 0.5 mg/kg/injection, schedule: Q01DX009 (ip), vehicle: saline + alcohol) is 95 % of control; the T/C (endpoint: median survival time, dose: 0.5 mg/kg/injection, schedule: Q04DX003 (ip), vehicle: saline + alcohol) was 113 % of control; the T/C (endpoint: median survival time, dose: 0.5 mg/kg/injection, schedule: Q08DX002 (ip), vehicle: saline + alcohol) was 114 % of control; the T/C (endpoint: median survival time, dose: 8.0 micrograms/kg/injection, schedule: Q03HX024 (ip), vehicle: saline + alcohol) was 104 % of control. Moreover, the T/C (endpoint: median survival time, dose: 8.0 micrograms/kg/injection, schedule: Q03HX024 (sc), vehicle: saline + alcohol) was 94 % of control; the T/C (endpoint: median survival time, dose: 15.6 micrograms/kg/injection, schedule: Q03HX024 (sc), vehicle: saline + alcohol) is 98 % of control; the T/C (endpoint: median survival time, dose: 16.0 micrograms/kg/injection, schedule: Q03HX024 (oral), vehicle: saline + alcohol) was 98 % of control and 101 % of control; the T/C (endpoint: median survival time, dose: 31.2 micrograms/kg/injection, schedule: Q03HX008 (ip), vehicle: saline + alcohol) was 117 % of control; the T/C (endpoint: median survival time, dose: 31.2 micrograms/kg/injection, schedule: Q03HX024 (ip), vehicle: saline + alcohol) was 157 % of control; the T/C (endpoint: median survival time, dose: 31.2 micrograms/kg/injection, schedule: Q03HX024 (sc), vehicle: saline + alcohol) was 103 % of control. Besides, the T/C was 110 % of control (endpoint: median survival time, dose: 31.3 micrograms/kg/injection, schedule: Q03HX024 (oral), vehicle: saline + alcohol); 162 % of control (endpoint: median survival time, dose: 62.5 micrograms/kg/injection, schedule: Q03HX024 (ip), vehicle: saline + alcohol); 165 % of control (endpoint: median survival time, dose: 62.5 micrograms/kg/injection, schedule: Q03HX024 (sc), vehicle: saline + alcohol).
Turning to `O=C1NC(CCl)(CCl)CO1`, the T/C is 94 % of control (endpoint: mean survival time, dose: 0.5 mg/kg/injection, schedule: Q01DX001 (ip), vehicle: saline); 94 % of control (endpoint: mean survival time, dose: 1.0 mg/kg/injection, schedule: Q01DX001 (ip), vehicle: saline); 105 % of control (endpoint: mean survival time, dose: 2.0 mg/kg/injection, schedule: Q01DX001 (ip), vehicle: saline).
On to `O=C(O)/C=C/c1ccc(Cl)cc1`, for which the T/C was 107 % of control (endpoint: mean survival time, dose: 100.0 mg/kg/injection, schedule: Q04DX002 (ip), vehicle: gum acacia); 95 % of control (endpoint: mean survival time, dose: 200.0 mg/kg/injection, schedule: Q04DX002 (ip), vehicle: gum acacia); 107 % of control (endpoint: mean survival time, dose: 400.0 mg/kg/injection, schedule: Q04DX002 (ip), vehicle: gum acacia).
For the compound `CCC1C(=O)N(C)c2ccccc21` (stereo not drawn), the T/C reads like this: (endpoint: mean survival time, dose: 100.0 mg/kg/injection, schedule: Q01DX001 (ip), vehicle: acetone) 100 % of control; (endpoint: mean survival time, dose: 200.0 mg/kg/injection, schedule: Q01DX001 (ip), vehicle: acetone) 96 % of control; (endpoint: mean survival time, dose: 400.0 mg/kg/injection, schedule: Q01DX001 (ip), vehicle: acetone) 97 % of control.
As to `C=CCc1c(F)c(F)c(F)c(F)c1F`, the T/C by setting is: (endpoint: mean survival time, dose: 100.0 mg/kg/injection, schedule: Q04DX003 (ip), vehicle: saline with Tween-80) 97 % of control; (endpoint: mean survival time, dose: 200.0 mg/kg/injection, schedule: Q04DX003 (ip), vehicle: saline with Tween-80) 95 % of control; (endpoint: mean survival time, dose: 400.0 mg/kg/injection, schedule: Q04DX003 (ip), vehicle: saline with Tween-80) 98 % of control.
With `NC(N)=NC(N)=NCCc1ccccc1`, the T/C is, setting by setting: (endpoint: mean survival time, dose: 100.0 mg/kg/injection, schedule: Q01DX001 (ip), vehicle: saline) 94 % of control; (endpoint: mean survival time, dose: 200.0 mg/kg/injection, schedule: Q01DX001 (ip), vehicle: saline) 94 % of control.
